Series [1] has as its system C57BL/6 mice. Description: Acute in vivo incretin secretion assay (plasma GLP-1 and PYY AUC). As to conditions: 100 mg/kg oral, fasted mice, 3-hour time course.
Text: Plasma was separated by centrifugation, aliquoted, and analyzed for GLP-1 (X-36) amide (Mesoscale Discovery) and total PYY (Millipore). Resulting raw data was used to generate area under the curve analyses (AUCs).
Series [2] can be described thus: Plasma compound levels after oral dosing (LC-MS/MS). To be noted: C57BL/6, mouse, 100 mg/kg.
The subject of the next series is gallbladder. As to conditions: cited from earlier work.
In series [3] the test system is C57BL/6 mice. Description: Oral glucose tolerance test, glucose only. To be noted: 100 mg/kg oral, glucose 3 g/kg 15 min after compound.
Experimental: For measurement of glucose only, overnight-fasted C57BL/6 mice in a normal light cycle were orally dosed with vehicle or compound, followed by an oral bolus of 3 g/kg glucose at 15 minutes post compound. At 0, 20, 40, 60, and 120 minutes post glucose dose, blood glucose was assessed via glucometers. Resulting raw data was used to generate AUCs. […] At 0, 15, 30, 60, and 120 minutes post glucose dose, blood glucose was assessed via glucometers. Resulting raw data was used to generate AUCs.
Series [4] deals with C57BL/6 mice. Nature of the series: Three-day study on GLP-1 and gallbladder filling (bile weight). Type of series: in vivo, mouse. As to conditions: 100 mg/kg oral BID 3 days, 30 min after last dose. The procedure:
C57BL/6 mice, Tgr5 KO mice, or their wild-type littermate controls were orally dosed with vehicle or compounds twice per day for 3 days, with overnight fasting performed on the evening of day 2. On the morning of day 3, animals were dosed orally with compounds and then euthanized by CO2 asphyxiation at 30 minutes after the fifth dose. Plasma was collected for analysis of GLP-1 (X-36) amide as mentioned above, followed immediately by incision into the abdominal cavity to remove and weigh bile from the gallbladder.
On the third day, compound was dosed in the morning followed 30 minutes later by measurement of bile filling (A) by use of a needle and syringe and GLP-1 (x-36) amide (B) by cardiac puncture.

Series [5] concerns C57BL/6 mice. Description: Oral glucose tolerance test with hormone measurement. Type of series: in vivo, mouse. To be noted: 10 mg/kg oral, glucose 3 g/kg, 1 hour. As for the experimental part: For measurement of glucose only, overnight-fasted C57BL/6 mice in a normal light cycle were orally dosed with vehicle or compound, followed by an oral bolus of 3 g/kg glucose at 15 minutes post compound. At 0, 20, 40, 60, and 120 minutes post glucose dose, blood glucose was assessed via glucometers. Resulting raw data was used to generate AUCs. For measurement of hormones and glucose, overnight-fasted C57BL/6 mice acclimated for two weeks to a reverse light cycle were orally dosed with vehicle or compound, followed by an oral bolus of 3 g/kg glucose at 15 minutes post compound. At 0, 2, 5, 10, 20, 40, and 60 minutes post glucose dose, blood glucose was assessed via glucometers, followed immediately by collection of plasma for active GLP-1 (Mesoscale Discovery), insulin (Mesoscale Discovery), and total PYY. Glucose tolerance tests in diet-induced obese (DIO) C57BL/6 mice were performed in overnight-fasted animals dosed either acutely or after 2-week administration with vehicle or compound 18 at 60 mg/kg, followed 30 minutes post compound by an oral bolus of 2 g/kg glucose. At 0, 15, 30, 60, and 120 minutes post glucose dose, blood glucose was assessed via glucometers. Resulting raw data was used to generate AUCs.
To evaluate glucose, insulin, GLP-1, and PYY levels throughout the OGTT, each time-point consisted of a separate group of mice that were used to record glucose by use of a glucometer followed by terminal bleeds for measurement of active GLP-1, total PYY, and insulin. AUCs were then calculated for the entire hour of the OGTT. […] Changes in insulin AUCs were not increased with treatment of either sitagliptin or compound 18, likely due to the lower glucose levels reducing the drive for glucose-stimulated insulin secretion (Fig 5D).
Fig 5 Compound 18 increases GLP-1 and PYY and lowers the glucose and insulin excursions as compared to sitagliptin in an OGTT in C57BL/6 mice. […] Plasma was analyzed for active GLP-1 (A), total PYY (B), and insulin (D), while blood glucose was measured by glucometers (C).

One may read the AUC(0-t) as the area under the concentration-time curve up to a stated or last time point. A higher AUC(0-t) goes with high exposure. The term Cmax denotes the peak of the concentration-time curve. For orientation: Tmax means the time from dosing to the highest level.

Each structure is given as a SMILES string.

Turning to `CC[C@H]1[C@@H](O)[C@@H]2[C@H](C[C@H](O)[C@]3(C)[C@@H]([C@H](C)C[C@H](C)C(=O)O)CC[C@@H]23)[C@@]2(C)CC[C@@H](O)C[C@@H]12` [INT-777, 6α-ethyl-23(S)-methylcholic acid, reference compound], in the series with C57BL/6 mice [1], the “GLP-1 AUC increase over vehicle” value was 2.8 fold over vehicle and the “PYY AUC increase over vehicle” value came out at 1.6 fold over vehicle. In series [2], the AUC(0-t) was 264 µM·h, the Cmax was found to be 136 µM and the Tmax is 1.5 h. Moreover, the “gallbladder filling with bile” value with gallbladder is recorded as “stimulated gallbladder filling with bile”. Also, the “effect on glucose tolerance in OGTT” value in the series with C57BL/6 mice [3] is given as “no detectable improvement of glucose tolerance”. Also, in the series with C57BL/6 mice [4], the “bile weight (gallbladder filling)” value is recorded as “significant increase in bile weight” and the “plasma GLP-1 levels” value is “no detectable increase in GLP-1”.
For `N[C@@H](CC(=O)N1CCn2c(nnc2C(F)(F)F)C1)Cc1cc(F)c(F)cc1F` [sitagliptin, reference compound], in the series with C57BL/6 mice [5], the “insulin AUC during OGTT” value is given as “not increased”.
